# In patent US8735609B2, “Bryostatin analogues, synthetic methods and uses” (The Board of Trustees of the Leland Stanford Junior …, priority 2007, dated 2014):
# What was measured:
# [1] = system: COLO 205; assay: NCI human cancer cell line growth inhibition: COLO 205 (Colon); assay type: cell-based
# [2] = system: HCT-116; assay: NCI human cancer cell line growth inhibition: HCT-116 (Colon); assay type: cell-based
# [3] = system: MDA-N; assay: NCI human cancer cell line growth inhibition: MDA-N (Breast); assay type: cell-based
# [4] = system: SNB-75; assay: NCI human cancer cell line growth inhibition: SNB-75 (CNS); assay type: cell-based
# [5] = system: IGROVI; assay: NCI human cancer cell line growth inhibition: IGROVI (Ovarian); assay type: cell-based
# [6] = system: 786-0; assay: NCI human cancer cell line growth inhibition: 786-0 (Renal); assay type: cell-based
# [7] = system: UACC-257; assay: NCI human cancer cell line growth inhibition: UACC-257 (Melanoma); assay type: cell-based
# [8] = system: RXF-393; assay: NCI human cancer cell line growth inhibition: RXF-393 (Renal); assay type: cell-based
# [9] = system: NCI-H23; assay type: cell-based, human; details: NCI-H23, NSC Lung
# [10] = system: CCRF-CEM; assay: NCI human cancer cell line growth inhibition: CCRF-CEM (Leukemia); assay type: cell-based
# [11] = system: MOLT-4; assay: NCI human cancer cell line growth inhibition: MOLT-4 (Leukemia); assay type: cell-based
# [12] = system: PC-3; assay: NCI human cancer cell line growth inhibition: PC-3 (Prostate); assay type: cell-based
# [13] = system: EKVX; assay: NCI human cancer cell line growth inhibition: EKVX (NSC Lung); assay type: cell-based
# [14] = system: OVCAR-8; assay: NCI human cancer cell line growth inhibition: OVCAR-8 (Ovarian); assay type: cell-based
# [15] = system: T-47D; assay: NCI human cancer cell line growth inhibition: T-47D (Breast); assay type: cell-based
# [16] = system: OVCAR-3; assay: NCI human cancer cell line growth inhibition: OVCAR-3 (Ovarian); assay type: cell-based
# [17] = system: K-562; assay: NCI human cancer cell line growth inhibition: K-562 (Leukemia); assay type: cell-based
# [18] = system: CAKI-1; assay: NCI human cancer cell line growth inhibition: CAKI-1 (Renal); assay type: cell-based
# [19] = system: BT-549; assay: NCI human cancer cell line growth inhibition: BT-549 (Breast); assay type: cell-based
# [20] = system: SK-MEL-2; assay: NCI human cancer cell line growth inhibition: SK-MEL-2 (Melanoma); assay type: cell-based
# [21] = system: SR; assay: NCI human cancer cell line growth inhibition: SR (Leukemia); assay type: cell-based
# [22] = system: NCI-H226; assay type: cell-based, human; details: NCI-H226, NSC Lung
# [23] = system: RPMI-8226; assay: NCI human cancer cell line growth inhibition: RPMI-8226 (Leukemia); assay type: cell-based
# [24] = system: HCT-15; assay: NCI human cancer cell line growth inhibition: HCT-15 (Colon); assay type: cell-based
# [25] = system: SNB-19; assay: NCI human cancer cell line growth inhibition: SNB-19 (CNS); assay type: cell-based
# [26] = system: DU-145; assay: NCI human cancer cell line growth inhibition: DU-145 (Prostate); assay type: cell-based
# [27] = system: MI4; assay: NCI human cancer cell line growth inhibition: MI4 (Melanoma); assay type: cell-based
# [28] = system: MALME-3M; assay: NCI human cancer cell line growth inhibition: MALME-3M (Melanoma); assay type: cell-based
# [29] = system: TK-10; assay: NCI human cancer cell line growth inhibition: TK-10 (Renal); assay type: cell-based
# [30] = system: HCC-2998; assay: NCI human cancer cell line growth inhibition: HCC-2998 (Colon); assay type: cell-based
# [31] = system: UACC-62; assay: NCI human cancer cell line growth inhibition: UACC-62 (Melanoma); assay type: cell-based
# [32] = system: U251; assay: NCI human cancer cell line growth inhibition: U251 (CNS); assay type: cell-based
# [33] = system: NCI/ADR-RES; assay type: cell-based, human; details: Breast
# [34] = system: ACHN; assay: NCI human cancer cell line growth inhibition: ACHN (Renal); assay type: cell-based
# [35] = system: SF-268; assay: NCI human cancer cell line growth inhibition: SF-268 (CNS); assay type: cell-based
# [36] = system: MDA-MB-231/ATCC; assay: NCI human cancer cell line growth inhibition: MDA-MB-231/ATCC (Breast); assay type: cell-based
# [37] = system: OVCAR-5; assay: NCI human cancer cell line growth inhibition: OVCAR-5 (Ovarian); assay type: cell-based
# [38] = system: HOP-92; assay: NCI human cancer cell line growth inhibition: HOP-92 (NSC Lung); assay type: cell-based
# [39] = system: LOX IMVI; assay: NCI human cancer cell line growth inhibition: LOX IMVI (Melanoma); assay type: cell-based
# [40] = system: SK-MEL-5; assay: NCI human cancer cell line growth inhibition: SK-MEL-5 (Melanoma); assay type: cell-based
# [41] = system: SK-MEL-28; assay: NCI human cancer cell line growth inhibition: SK-MEL-28 (Melanoma); assay type: cell-based
# [42] = system: MCF7; assay: NCI human cancer cell line growth inhibition: MCF7 (Breast); assay type: cell-based
# [43] = system: A498; assay: NCI human cancer cell line growth inhibition: A498 (Renal); assay type: cell-based
# [44] = system: NCI-H522; assay type: cell-based, human; details: NCI-H522, NSC Lung
# [45] = system: MDA-MB-435; assay: NCI human cancer cell line growth inhibition: MDA-MB-435 (Breast); assay type: cell-based
# [46] = system: NCI-H460; assay type: cell-based, human; details: NCI-H460, NSC Lung
# [47] = system: KM12; assay: NCI human cancer cell line growth inhibition: KM12 (Colon); assay type: cell-based
# [48] = system: SK-OV-3; assay: NCI human cancer cell line growth inhibition: SK-OV-3 (Ovarian); assay type: cell-based
# [49] = system: HL-60(TB); assay: cells; assay type: cell-based, human
# [50] = system: HS 578T; assay: NCI human cancer cell line growth inhibition: HS 578T (Breast); assay type: cell-based
# [51] = system: SF-295; assay: NCI human cancer cell line growth inhibition: SF-295 (CNS); assay type: cell-based
# [52] = system: HOP-62; assay: NCI human cancer cell line growth inhibition: HOP-62 (NSC Lung); assay type: cell-based
# [53] = system: A549/ATCC; assay: NCI human cancer cell line growth inhibition: A549/ATCC (NSC Lung); assay type: cell-based
# [54] = system: OVCAR-4; assay: NCI human cancer cell line growth inhibition: OVCAR-4 (Ovarian); assay type: cell-based
# [55] = system: SW-620; assay: NCI human cancer cell line growth inhibition: SW-620 (Colon); assay type: cell-based
# [56] = system: HT29; assay: NCI human cancer cell line growth inhibition: HT29 (Colon); assay type: cell-based
# [57] = system: SF-539; assay: NCI human cancer cell line growth inhibition: SF-539 (CNS); assay type: cell-based
# [58] = system: UO-31; assay: NCI human cancer cell line growth inhibition: UO-31 (Renal); assay type: cell-based
# [59] = system: SN12C; assay: NCI human cancer cell line growth inhibition: SN12C (Renal); assay type: cell-based
structure (smiles),measurement,setting,value
"CCC/C=C/C=C/C(=O)O[C@H]1/C(=C/C(=O)OC)C[C@H]2C[C@H]([C@@H](C)O)OC(=O)C[C@H](O)C[C@@H]3C[C@H](OC(C)=O)C(C)(C)[C@](O)(C[C@@H]4C/C(=C/C(=O)OC)C[C@H](/C=C/C(C)(C)[C@]1(O)O2)O4)O3 [Bryo-1, Bryostatin-1, reference compound]",Growth inhibition (GI50),[1],−5.40 log of molar concentration
same,Growth inhibition (GI50),[2],−5.30 log of molar concentration
same,Growth inhibition (GI50),[3],−5.10 log of molar concentration
same,Growth inhibition (GI50),[4],−5.50 log of molar concentration
same,Growth inhibition (GI50),[5],−5.30 log of molar concentration
same,Growth inhibition (GI50),[6],−5.20 log of molar concentration
same,Growth inhibition (GI50),[7],−5.10 log of molar concentration
same,Growth inhibition (GI50),[8],−5.30 log of molar concentration
same,Growth inhibition (GI50),[9],>−5 log of molar concentration
same,Growth inhibition (GI50),[10],−5.30 log of molar concentration
same,Growth inhibition (GI50),[11],−5.50 log of molar concentration
same,Growth inhibition (GI50),[12],−5.30 log of molar concentration
same,Growth inhibition (GI50),[13],−5.30 log of molar concentration
same,Growth inhibition (GI50),[14],−5.10 log of molar concentration
same,Growth inhibition (GI50),[15],−5.20 log of molar concentration
same,Growth inhibition (GI50),[16],−5.10 log of molar concentration
same,Growth inhibition (GI50),[17],−5.40 log of molar concentration
same,Growth inhibition (GI50),[18],−5.40 log of molar concentration
same,Growth inhibition (GI50),[19],−5.10 log of molar concentration
same,Growth inhibition (GI50),[20],−5.20 log of molar concentration
same,Growth inhibition (GI50),[21],>−5 log of molar concentration
same,Growth inhibition (GI50),[22],>−5 log of molar concentration
same,Growth inhibition (GI50),[23],>−5 log of molar concentration
same,Growth inhibition (GI50),[24],>−5 log of molar concentration
same,Growth inhibition (GI50),[25],>−5 log of molar concentration
same,Growth inhibition (GI50),[26],>−5 log of molar concentration
same,Growth inhibition (GI50),[27],>−5 log of molar concentration
same,Growth inhibition (GI50),[28],−5.20 log of molar concentration
same,Growth inhibition (GI50),[29],>−5 log of molar concentration
same,Growth inhibition (GI50),[30],−5.30 log of molar concentration
same,Growth inhibition (GI50),[31],−5.30 log of molar concentration
same,Growth inhibition (GI50),[32],−5.10 log of molar concentration
same,Growth inhibition (GI50),[33],>−5 log of molar concentration
same,Growth inhibition (GI50),[34],−5.50 log of molar concentration
same,Growth inhibition (GI50),[35],−5.10 log of molar concentration
same,Growth inhibition (GI50),[36],−5.20 log of molar concentration
same,Growth inhibition (GI50),[37],>−5 log of molar concentration
same,Growth inhibition (GI50),[38],−5.30 log of molar concentration
same,Growth inhibition (GI50),[39],−5.10 log of molar concentration
same,Growth inhibition (GI50),[40],−5.70 log of molar concentration
same,Growth inhibition (GI50),[41],−5.10 log of molar concentration
same,Growth inhibition (GI50),[42],−5.20 log of molar concentration
same,Growth inhibition (GI50),[43],>−5 log of molar concentration
same,Growth inhibition (GI50),[44],>−5 log of molar concentration
same,Growth inhibition (GI50),[45],−5.10 log of molar concentration
same,Growth inhibition (GI50),[46],−5.60 log of molar concentration
same,Growth inhibition (GI50),[47],−5.20 log of molar concentration
same,Growth inhibition (GI50),[48],−5.10 log of molar concentration
same,Growth inhibition (GI50),[49],−5.70 log of molar concentration
same,Growth inhibition (GI50),[50],−5.2 log of molar concentration
same,Growth inhibition (GI50),[51],−5.20 log of molar concentration
same,Growth inhibition (GI50),[52],>−5 log of molar concentration
same,Growth inhibition (GI50),[53],−5.20 log of molar concentration
same,Growth inhibition (GI50),[54],−5.50 log of molar concentration
same,Growth inhibition (GI50),[55],−5.50 log of molar concentration
same,Growth inhibition (GI50),[56],−5.30 log of molar concentration
same,Growth inhibition (GI50),[57],>−5 log of molar concentration
same,Growth inhibition (GI50),[58],−5.60 log of molar concentration
same,Growth inhibition (GI50),[59],−5.10 log of molar concentration
